Results: BindingDB's records for doi:10.1021/jm00101a030 (University of Michigan, 1992)

Experiment: Binding affinity against Opioid receptor delta 1 in guinea pig brain homogenates, using [3H]DPDPE as radioligand.

SMILES	Ki [nM]
CC1(C)SSC[C@@H](NC(=O)[C@@H]2NCC[C@@H]2c2ccc(O)cc2)C(=O)N[C@@H](Cc2ccccc2)C(=O)N[C@@H]1C(=O)O	84
CC1(C)SSC[C@@H](NC(=O)[C@H]2NCC[C@@H]2c2ccc(O)cc2)C(=O)N[C@@H](Cc2ccccc2)C(=O)N[C@@H]1C(=O)O	0.66
